# Experimental data from ChEMBL document CHEMBL1201862, “PubChem BioAssay data set” (2004).
# The source made the active and inactive calls.
# Legend:
# Coagulation factor XII = molecular target: T1, Coagulation factor XII (Homo sapiens, UniProt P00748); format: functional;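 note: activated factor XIIa alpha cleaving a fluorogenic AMC peptide substrate; inhibitor potency from loss of enzyme activity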
# T1 sequence (P00748 whole entry): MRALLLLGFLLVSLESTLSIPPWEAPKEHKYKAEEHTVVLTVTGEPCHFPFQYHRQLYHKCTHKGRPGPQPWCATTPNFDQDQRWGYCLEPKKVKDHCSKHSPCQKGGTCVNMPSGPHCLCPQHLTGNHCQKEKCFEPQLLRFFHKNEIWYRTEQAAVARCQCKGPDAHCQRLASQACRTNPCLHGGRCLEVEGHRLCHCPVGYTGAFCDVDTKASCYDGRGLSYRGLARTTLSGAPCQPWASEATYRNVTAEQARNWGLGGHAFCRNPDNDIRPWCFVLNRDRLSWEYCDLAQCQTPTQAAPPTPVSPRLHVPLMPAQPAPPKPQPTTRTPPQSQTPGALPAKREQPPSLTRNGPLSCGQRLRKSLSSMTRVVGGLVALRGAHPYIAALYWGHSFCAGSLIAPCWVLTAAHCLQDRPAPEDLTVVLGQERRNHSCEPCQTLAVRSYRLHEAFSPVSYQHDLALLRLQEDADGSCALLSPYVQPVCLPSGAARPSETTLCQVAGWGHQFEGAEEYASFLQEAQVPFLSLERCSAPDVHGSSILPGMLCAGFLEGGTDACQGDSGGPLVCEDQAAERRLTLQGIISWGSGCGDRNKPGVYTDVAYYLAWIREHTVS
# Protein Wnt-3a = Protein Wnt-3a (Mus musculus, UniProt P27467); experiment: antagonism of Wnt3a pathway luciferase reporter – Wnt-LIGHT cells, luminescence, selectivity assay for Gli-SUFU antagonist project, dose response (AID 651570); format: functional; conditions: read-out: IC50_Mean;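 note: Wnt-LIGHT reporter cells stimulated with conditioned medium from Wnt3a-producing cells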
# [1] = molecular target: T2, High affinity choline transporter 1 (Homo sapiens, UniProt Q9GZV3); experiment: human choline transporter blockers, potency – cell-based, 5-point CRC, membrane potential dye, dose response (AID 504840); format: functional
# T2 sequence (Q9GZV3 whole entry): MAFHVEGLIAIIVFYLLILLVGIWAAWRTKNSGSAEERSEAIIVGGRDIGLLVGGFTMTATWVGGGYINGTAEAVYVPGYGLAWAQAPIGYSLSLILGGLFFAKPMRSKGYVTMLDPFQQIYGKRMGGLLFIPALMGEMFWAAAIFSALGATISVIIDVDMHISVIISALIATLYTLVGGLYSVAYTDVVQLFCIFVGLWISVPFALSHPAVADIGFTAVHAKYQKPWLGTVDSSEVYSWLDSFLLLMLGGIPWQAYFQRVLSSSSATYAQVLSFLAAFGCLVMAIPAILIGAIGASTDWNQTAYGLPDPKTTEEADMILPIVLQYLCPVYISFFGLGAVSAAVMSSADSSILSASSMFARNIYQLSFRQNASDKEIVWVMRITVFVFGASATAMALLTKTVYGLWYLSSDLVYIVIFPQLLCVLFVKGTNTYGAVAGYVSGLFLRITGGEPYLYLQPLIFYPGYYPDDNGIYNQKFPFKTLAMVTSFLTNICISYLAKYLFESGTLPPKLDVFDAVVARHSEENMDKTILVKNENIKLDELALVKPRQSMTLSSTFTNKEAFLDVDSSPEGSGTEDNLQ
# [2] = molecular target: T2, High affinity choline transporter 1; experiment: human choline transporter blockers, potency – cell-based, 10-point CRC, membrane potential dye, dose response (AID 588401); format: functional;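 note: membrane potential dye fluorescence of choline-evoked depolarization via CHT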
# Estrogen receptor beta = Estrogen receptor beta (Homo sapiens, UniProt Q92731);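 note: recombinant ER-beta bound to coactivator SRC1 peptide in presence of estradiol agonist; inhibitors block coactivator peptide binding and lower the FRET signal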
# Melanocortin receptor 4 [3] = molecular target: T3, Melanocortin receptor 4 (Homo sapiens, UniProt P32245); format: functional, cell-based;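 note: Cell-based assay with luminescence read-out, confirmatory dose-response testing for agonist activity of biased ligands at MC4R; human U2OS cells with tagged receptor and beta-arrestin; potency of agonists that increase receptor coupling to beta-arrestin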
# Cytochrome P450 2D6 = Cytochrome P450 2D6 (Homo sapiens, UniProt P10635);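 note: CYP2D6 member of a cytochrome P450 panel assay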
# Cytochrome P450 3A4 = Cytochrome P450 3A4 (Homo sapiens, UniProt P08684);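 note: CYP3A4 tested as one member of a cytochrome P450 panel screen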
# Cytochrome P450 2C9 = Cytochrome P450 2C9 (Homo sapiens, UniProt P11712)
# Melanocortin receptor 4 [4] = molecular target: T3, Melanocortin receptor 4; experiment: inhibitors of MC4R cAMP signaling – cell-based, TR-FRET, biased antagonists, dose response (AID 602298); format: functional;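 note: antagonist potency against agonist-stimulated cAMP production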
# [5] = cAMP pathway inhibition in counterscreen cell line – TR-FRET cAMP detection, counter-screen for MC4R biased antagonist project, dose response (AID 602305); format: functional, cell-based;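 note: U2OS cells stimulated with forskolin near its EC80 as the cAMP inducer; potency is for inhibition of forskolin-stimulated cAMP signaling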
# [6] = molecular target: Adenosylmethionine-8-amino-7-oxononanoate aminotransferase (Mycobacterium tuberculosis, UniProt P9WQ81); experiment: Mycobacterium tuberculosis BioA enzyme inhibitor Measured in Biochemical System Using Plate Reader - 2163-02_Inhibitor_Dose_CherryPick_Activity.; format: functional, Mycobacterium tuberculosis UT205
# [7] = suppression of NO production in INS-1E cells – cell-based, Griess absorbance, dry powder, set 3, dose response (AID 488870); format: functional; conditions: Rattus norvegicus
# INS1 = experiment: suppression of NO production in INS-1E cells – cell-based, Griess absorbance, dry powder, set 2, dose response (AID 488868); format: functional; conditions: Rattus norvegicus
# [8] = P. falciparum Dd2 growth inhibitors, dose response, SYBR Green, cherry-picked samples (AID 1159567); format: functional, cell-based
# [9] = molecular target: Aryl hydrocarbon receptor (Homo sapiens, UniProt P35869); conditions: Potency;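 note: confirmatory quantitative high-throughput screen measuring activation of the AhR signaling pathway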
# [10] = molecular target: T4, Apoptotic protease-activating factor 1 (Homo sapiens, UniProt O14727); experiment: SAR analysis of small molecule Activators of Apaf-1 in a Fluorescent assay.; format: functional; conditions: read-out: EC50_Mean;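 note: caspase-3 cleavage of fluorogenic Rh110 DEVD substrate downstream of apoptosome activation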
# T4 sequence (O14727 whole entry): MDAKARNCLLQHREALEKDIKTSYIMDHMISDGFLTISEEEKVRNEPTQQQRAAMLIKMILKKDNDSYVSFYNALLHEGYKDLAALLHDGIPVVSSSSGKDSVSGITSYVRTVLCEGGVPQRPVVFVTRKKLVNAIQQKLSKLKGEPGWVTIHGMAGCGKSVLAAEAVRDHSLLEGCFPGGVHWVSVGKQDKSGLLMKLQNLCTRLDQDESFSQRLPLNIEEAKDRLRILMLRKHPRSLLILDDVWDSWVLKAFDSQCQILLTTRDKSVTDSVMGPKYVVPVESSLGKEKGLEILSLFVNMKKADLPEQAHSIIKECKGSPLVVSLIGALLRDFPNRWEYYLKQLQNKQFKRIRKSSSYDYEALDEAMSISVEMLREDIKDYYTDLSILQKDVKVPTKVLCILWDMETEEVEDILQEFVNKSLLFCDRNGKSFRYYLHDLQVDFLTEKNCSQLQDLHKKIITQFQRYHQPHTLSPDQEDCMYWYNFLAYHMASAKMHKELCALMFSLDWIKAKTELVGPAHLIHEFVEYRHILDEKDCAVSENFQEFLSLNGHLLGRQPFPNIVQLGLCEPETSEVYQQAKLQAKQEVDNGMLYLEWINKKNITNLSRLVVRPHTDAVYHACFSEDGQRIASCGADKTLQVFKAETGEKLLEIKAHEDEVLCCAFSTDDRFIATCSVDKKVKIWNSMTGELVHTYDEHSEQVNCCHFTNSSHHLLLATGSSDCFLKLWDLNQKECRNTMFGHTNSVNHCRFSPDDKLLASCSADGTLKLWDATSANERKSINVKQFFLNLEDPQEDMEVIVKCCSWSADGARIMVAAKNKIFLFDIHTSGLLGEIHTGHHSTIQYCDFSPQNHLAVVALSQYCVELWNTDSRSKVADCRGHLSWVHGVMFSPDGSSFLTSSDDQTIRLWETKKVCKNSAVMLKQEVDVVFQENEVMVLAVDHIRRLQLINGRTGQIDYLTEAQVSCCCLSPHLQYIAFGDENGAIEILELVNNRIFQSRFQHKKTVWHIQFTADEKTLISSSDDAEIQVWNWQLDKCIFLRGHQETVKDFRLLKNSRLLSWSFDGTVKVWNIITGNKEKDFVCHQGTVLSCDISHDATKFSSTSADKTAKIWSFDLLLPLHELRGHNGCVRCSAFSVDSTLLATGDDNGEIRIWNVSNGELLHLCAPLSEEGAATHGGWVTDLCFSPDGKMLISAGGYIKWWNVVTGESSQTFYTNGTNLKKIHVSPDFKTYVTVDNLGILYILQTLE
# Beta Lactamase = Beta Lactamase (Pseudomonas aeruginosa, UniProt Q932Y6);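 note: confirmatory high-throughput screen measuring VIM-2 metallo-beta-lactamase inhibition by epi-absorbance in dose response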
# BJ [11] = experiment: BJ-TERT fibroblast viability loss – cell-based, RAS-independent, luminescence, dose response (AID 1933); format: functional; conditions: Homo sapiens
# BJ [12] = experiment: cells; format: functional, cell-based; conditions: Homo sapiens
# Beta-lactamase [13] = molecular target: Beta-lactamase (Pseudomonas aeruginosa, UniProt Q79MP6);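 note: biochemical dose-response test of metallo-beta-lactamase enzyme inhibition, read out by epi-absorbance; purified recombinant IMP-1 metallo-beta-lactamase with nitrocefin as substrate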
# BJ [14] = experiment: BJ-TERT-LT-ST fibroblast viability loss – cell-based, RAS-independent, luminescence, dose response (AID 1935); format: functional; conditions: Homo sapiens;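 note: BJ fibroblasts immortalized with TERT plus LT and ST oncogenes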
# Beta-lactamase [15] = molecular target: Beta-lactamase (Salmonella choleraesuis (strain SC-B67), UniProt Q5J463)
# [16] = DRD fibroblast viability loss – cell-based, non-viral oncogenic, luminescence, dose response (AID 1934); format: functional; conditions: Homo sapiens
# Troponin, cardiac muscle = Troponin, cardiac muscle (Homo sapiens, UniProt P19429+P45379+P63316); experiment: Fluorescence-based biochemical high throughput dose response assay for activators of the calcium sensitivity of cardiac Regulated Thin Filaments (RTF). [Related pubchem assays (depositor defined):AID493008, AID493018, AID504382, AID504383]; format: protein-complex assay
# [17] = molecular target: T5, Endoribonuclease toxin MazF (Escherichia coli K-12, UniProt P0AE70); experiment: activation of MazEF endoribonuclease cleavage – biochemical, fluorescence, single-stranded RNA substrate, uHTS hits, dose response (AID 588481); format: functional
# T5 sequence (P0AE70 whole entry): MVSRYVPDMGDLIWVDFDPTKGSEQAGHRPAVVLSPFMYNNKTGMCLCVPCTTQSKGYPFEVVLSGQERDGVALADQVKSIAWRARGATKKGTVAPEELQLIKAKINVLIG
# [18] = molecular target: T5, Endoribonuclease toxin MazF; experiment: substrate-only fluorescence increase artefacts – biochemical, single-stranded RNase substrate, counter-screen for MazEF activator project, dose response (AID 588502); format: functional
# Aurora kinase A = Aurora kinase A (Homo sapiens, UniProt O14965); format: functional;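 note: value from the Navigating the Kinome kinase panel profiling, panel entry STK6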
# Aurora kinase B = Aurora kinase B (Homo sapiens, UniProt Q96GD4); format: functional
# [19] = molecular target: Serine/threonine-protein kinase pim-1 (Homo sapiens, UniProt P11309); format: functional
# [20] = molecular target: Receptor-type tyrosine-protein kinase FLT3 (Homo sapiens, UniProt P36888); format: functional;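 note: FLT3 was tested as one member of a kinome-wide kinase panel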
# [21] = molecular target: T6, Mitochondrial peptide methionine sulfoxide reductase (Bos taurus, UniProt P54149); format: functional;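 note: absorbance read-out, biochemical high-throughput dose-response screen for MsrA inhibitors, confirmatory; recombinant bovine MsrA coupled to E. coli TrxB with NADPH and selenocystamine; potency is for inhibitors of MsrA activity on DMSO substrate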
# T6 sequence (P54149 whole entry): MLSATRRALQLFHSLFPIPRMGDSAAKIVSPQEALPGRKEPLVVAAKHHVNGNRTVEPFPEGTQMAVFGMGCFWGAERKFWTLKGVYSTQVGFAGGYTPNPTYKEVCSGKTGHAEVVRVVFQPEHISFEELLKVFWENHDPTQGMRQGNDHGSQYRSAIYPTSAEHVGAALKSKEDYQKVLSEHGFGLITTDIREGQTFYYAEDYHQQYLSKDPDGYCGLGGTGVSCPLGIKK
# T3 sequence (P32245 whole entry): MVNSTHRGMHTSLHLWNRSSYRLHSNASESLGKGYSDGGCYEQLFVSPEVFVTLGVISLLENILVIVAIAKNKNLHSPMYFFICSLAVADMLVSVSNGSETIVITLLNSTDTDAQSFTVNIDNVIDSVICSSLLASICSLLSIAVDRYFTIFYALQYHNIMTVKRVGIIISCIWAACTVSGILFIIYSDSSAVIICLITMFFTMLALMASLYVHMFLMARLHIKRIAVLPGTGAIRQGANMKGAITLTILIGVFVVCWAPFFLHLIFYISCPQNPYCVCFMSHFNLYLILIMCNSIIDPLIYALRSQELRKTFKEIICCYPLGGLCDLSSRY
# Sequence of Protein Wnt-3a (P27467 whole entry): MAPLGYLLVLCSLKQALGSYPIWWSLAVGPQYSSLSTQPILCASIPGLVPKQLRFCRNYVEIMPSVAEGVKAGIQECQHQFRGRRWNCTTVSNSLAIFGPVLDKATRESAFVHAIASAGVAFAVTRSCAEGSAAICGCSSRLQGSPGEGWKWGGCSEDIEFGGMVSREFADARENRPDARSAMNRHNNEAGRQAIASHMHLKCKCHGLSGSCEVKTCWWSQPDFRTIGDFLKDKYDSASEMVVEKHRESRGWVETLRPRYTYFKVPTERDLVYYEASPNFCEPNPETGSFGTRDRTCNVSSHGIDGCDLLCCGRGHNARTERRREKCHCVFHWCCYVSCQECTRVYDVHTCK
# Sequence of Aurora kinase A (O14965 whole entry): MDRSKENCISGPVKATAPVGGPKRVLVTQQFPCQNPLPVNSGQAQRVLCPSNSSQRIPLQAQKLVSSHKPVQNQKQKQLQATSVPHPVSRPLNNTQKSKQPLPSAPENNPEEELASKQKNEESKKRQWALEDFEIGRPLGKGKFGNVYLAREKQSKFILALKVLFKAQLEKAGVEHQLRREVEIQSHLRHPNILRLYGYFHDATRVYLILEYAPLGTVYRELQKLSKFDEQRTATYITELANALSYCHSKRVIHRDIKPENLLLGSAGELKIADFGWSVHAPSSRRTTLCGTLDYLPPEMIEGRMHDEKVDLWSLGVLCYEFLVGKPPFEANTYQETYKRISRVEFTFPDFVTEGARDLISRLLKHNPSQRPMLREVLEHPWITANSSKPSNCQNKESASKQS
# Sequence of Beta Lactamase (Q932Y6 whole entry): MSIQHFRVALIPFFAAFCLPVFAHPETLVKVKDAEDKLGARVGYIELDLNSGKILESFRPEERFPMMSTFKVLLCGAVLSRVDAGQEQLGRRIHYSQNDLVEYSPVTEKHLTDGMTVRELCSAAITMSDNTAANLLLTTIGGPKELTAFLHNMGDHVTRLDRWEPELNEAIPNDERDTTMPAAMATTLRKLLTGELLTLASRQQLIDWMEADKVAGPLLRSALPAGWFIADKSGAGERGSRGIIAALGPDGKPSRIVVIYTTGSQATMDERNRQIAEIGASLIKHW
# Sequence of Estrogen receptor beta (Q92731 whole entry): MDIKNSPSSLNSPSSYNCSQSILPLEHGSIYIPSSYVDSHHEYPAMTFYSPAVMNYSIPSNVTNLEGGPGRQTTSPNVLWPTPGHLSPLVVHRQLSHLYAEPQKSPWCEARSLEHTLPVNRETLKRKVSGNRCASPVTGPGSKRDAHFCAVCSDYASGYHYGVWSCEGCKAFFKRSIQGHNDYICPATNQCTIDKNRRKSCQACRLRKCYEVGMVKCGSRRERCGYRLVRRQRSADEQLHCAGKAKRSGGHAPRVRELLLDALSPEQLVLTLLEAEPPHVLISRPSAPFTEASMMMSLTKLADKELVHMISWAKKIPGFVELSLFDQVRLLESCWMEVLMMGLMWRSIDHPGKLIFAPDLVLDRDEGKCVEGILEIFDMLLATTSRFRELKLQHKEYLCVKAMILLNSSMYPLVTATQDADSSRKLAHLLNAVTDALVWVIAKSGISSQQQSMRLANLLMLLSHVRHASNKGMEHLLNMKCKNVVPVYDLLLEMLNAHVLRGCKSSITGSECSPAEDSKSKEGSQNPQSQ
# Sequence of Beta-lactamase (Salmonella choleraesuis (strain SC-B67), UniProt Q5J463) (Q5J463 whole entry): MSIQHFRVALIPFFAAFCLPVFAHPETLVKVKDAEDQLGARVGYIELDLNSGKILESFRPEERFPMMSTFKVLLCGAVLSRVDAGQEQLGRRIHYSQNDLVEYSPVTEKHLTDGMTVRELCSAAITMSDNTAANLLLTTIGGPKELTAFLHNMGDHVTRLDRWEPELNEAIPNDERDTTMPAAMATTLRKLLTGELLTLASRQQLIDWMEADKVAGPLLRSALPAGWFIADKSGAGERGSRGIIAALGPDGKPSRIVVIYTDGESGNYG
# Sequence of Aurora kinase B (Q96GD4 whole entry): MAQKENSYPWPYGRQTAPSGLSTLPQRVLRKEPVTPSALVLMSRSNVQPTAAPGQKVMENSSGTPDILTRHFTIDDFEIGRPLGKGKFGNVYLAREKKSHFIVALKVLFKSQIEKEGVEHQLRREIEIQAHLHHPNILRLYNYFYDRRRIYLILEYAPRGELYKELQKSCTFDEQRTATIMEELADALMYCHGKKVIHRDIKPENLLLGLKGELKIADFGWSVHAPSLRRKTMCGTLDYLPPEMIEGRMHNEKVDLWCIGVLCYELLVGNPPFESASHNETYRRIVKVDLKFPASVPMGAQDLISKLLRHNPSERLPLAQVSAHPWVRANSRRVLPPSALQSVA
# Sequence of Cytochrome P450 3A4 (P08684 whole entry): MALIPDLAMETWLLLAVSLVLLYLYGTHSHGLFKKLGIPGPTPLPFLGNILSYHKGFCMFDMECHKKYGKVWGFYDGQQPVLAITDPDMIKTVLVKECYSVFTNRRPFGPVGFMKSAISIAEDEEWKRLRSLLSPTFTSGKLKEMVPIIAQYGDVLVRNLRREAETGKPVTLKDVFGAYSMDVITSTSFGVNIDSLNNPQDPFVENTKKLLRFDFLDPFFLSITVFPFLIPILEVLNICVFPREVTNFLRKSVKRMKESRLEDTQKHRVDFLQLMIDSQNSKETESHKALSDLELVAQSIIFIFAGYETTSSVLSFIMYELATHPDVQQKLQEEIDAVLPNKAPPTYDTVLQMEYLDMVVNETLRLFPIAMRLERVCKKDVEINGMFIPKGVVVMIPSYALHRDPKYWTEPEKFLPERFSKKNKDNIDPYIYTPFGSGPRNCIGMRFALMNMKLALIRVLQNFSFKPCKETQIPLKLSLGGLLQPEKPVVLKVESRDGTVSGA
# Sequence of Adenosylmethionine-8-amino-7-oxononanoate aminotransferase (P9WQ81 whole entry): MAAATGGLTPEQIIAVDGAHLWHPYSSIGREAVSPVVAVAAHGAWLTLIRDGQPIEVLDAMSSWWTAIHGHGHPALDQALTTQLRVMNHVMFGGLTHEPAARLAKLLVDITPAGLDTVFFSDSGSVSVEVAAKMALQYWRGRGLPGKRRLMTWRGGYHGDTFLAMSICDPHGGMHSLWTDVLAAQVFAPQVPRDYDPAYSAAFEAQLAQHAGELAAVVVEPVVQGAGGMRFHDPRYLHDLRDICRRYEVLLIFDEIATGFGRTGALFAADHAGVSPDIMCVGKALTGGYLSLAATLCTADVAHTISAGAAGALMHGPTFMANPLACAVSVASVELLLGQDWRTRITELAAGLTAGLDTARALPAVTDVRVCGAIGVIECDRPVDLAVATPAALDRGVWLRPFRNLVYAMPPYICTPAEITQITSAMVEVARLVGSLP
# Sequence of Serine/threonine-protein kinase pim-1 (P11309 whole entry): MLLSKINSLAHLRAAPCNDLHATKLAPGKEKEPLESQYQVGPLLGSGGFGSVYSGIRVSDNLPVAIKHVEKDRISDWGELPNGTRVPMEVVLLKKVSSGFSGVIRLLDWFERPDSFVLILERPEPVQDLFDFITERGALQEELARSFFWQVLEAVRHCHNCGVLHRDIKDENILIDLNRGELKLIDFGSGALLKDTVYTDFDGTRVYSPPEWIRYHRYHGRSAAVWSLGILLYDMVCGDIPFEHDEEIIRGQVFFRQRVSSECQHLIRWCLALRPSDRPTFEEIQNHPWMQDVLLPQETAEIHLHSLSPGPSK
# Sequence of Receptor-type tyrosine-protein kinase FLT3 (P36888 whole entry): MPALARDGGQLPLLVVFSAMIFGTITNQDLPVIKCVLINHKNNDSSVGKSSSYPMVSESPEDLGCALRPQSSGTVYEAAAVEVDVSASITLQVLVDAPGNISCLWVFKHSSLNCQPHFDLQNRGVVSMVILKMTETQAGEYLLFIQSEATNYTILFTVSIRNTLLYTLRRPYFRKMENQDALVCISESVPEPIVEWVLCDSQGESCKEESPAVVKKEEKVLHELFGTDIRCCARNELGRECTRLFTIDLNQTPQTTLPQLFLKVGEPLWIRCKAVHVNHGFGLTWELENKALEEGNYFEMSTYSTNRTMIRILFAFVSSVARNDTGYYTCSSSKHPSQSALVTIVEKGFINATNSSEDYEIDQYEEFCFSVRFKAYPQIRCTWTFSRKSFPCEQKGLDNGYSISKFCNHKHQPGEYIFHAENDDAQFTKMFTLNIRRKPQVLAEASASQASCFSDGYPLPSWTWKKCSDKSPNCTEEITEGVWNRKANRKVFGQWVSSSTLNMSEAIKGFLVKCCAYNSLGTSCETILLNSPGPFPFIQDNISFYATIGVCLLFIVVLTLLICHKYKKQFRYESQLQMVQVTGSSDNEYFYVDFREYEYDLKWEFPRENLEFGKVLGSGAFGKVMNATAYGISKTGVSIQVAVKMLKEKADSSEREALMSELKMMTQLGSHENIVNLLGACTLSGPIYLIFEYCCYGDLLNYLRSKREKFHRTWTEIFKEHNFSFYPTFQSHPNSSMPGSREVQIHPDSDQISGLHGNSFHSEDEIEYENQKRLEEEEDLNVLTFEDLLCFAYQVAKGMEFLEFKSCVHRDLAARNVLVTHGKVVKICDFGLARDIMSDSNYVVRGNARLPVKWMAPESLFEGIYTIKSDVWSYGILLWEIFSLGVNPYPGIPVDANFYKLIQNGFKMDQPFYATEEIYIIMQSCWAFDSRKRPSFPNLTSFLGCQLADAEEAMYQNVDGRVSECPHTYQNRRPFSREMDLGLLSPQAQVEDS
structure (smiles),measurement,setting,value
COc1ccc(C2=[N+](C)CCn3cccc32)c(OC)c1,IC50,Coagulation factor XII,> 50 µM (inactive)
same,IC50,Protein Wnt-3a,7 µM (active)
Cc1noc(C)c1COC(=O)c1cnc(Cl)c(Cl)c1,IC50,[1],10 µM (active)
same,IC50,[2],5.01 µM (active)
CCOc1cc(NC(=O)c2cccs2)c(OCC)cc1NC(=O)c1ccco1,IC50,Estrogen receptor beta,> 50 µM (not active)
same,EC50,Melanocortin receptor 4 [3],> 89.1 µM (inactive)
same,AC50,Cytochrome P450 2D6,0.708 µM (inconclusive)
same,AC50,Cytochrome P450 3A4,0.178 µM (inconclusive)
same,AC50,Cytochrome P450 2C9,0.0355 µM (inconclusive)
CCOC(=O)CCC(=O)Nc1ccc(S(=O)(=O)N2CCc3ccccc32)cc1,IC50,Melanocortin receptor 4 [4],> 64.6 µM (inactive)
same,IC50,[5],> 64.6 µM (inactive)
CCOC(=O)c1cc(C)nc(S(C)(=O)=O)c1C#N,IC50,Melanocortin receptor 4 [4],> 64.6 µM (inactive)
same,IC50,[5],> 64.6 µM (inactive)
COc1ccc(NC(=O)c2ccc(Cl)nc2)cc1S(=O)(=O)N1CCOCC1,AC50,[6],2.27 µM (active)
COc1ccc(C(=O)C[n+]2cccc(C)c2)cc1,IC50,[1],2.43 µM (active)
same,IC50,[2],2.05 µM (active)
C[C@@H]1CN([C@@H](C)CO)C(=O)c2cccc(NC(=O)Nc3cccc4ccccc34)c2O[C@H]1CN(C)C(=O)NC1CCCCC1,AC50,[7],37.8 µM (active)
same,AC50,INS1,24.6 µM (active)
same,AC50,[8],5.39 µM (active)
COc1ccccc1S(=O)(=O)N(C)C[C@@H]1Oc2c(NC(=O)Nc3cccc4ccccc34)cccc2C(=O)N([C@@H](C)CO)C[C@H]1C,AC50,[7],45.1 µM (active)
same,AC50,INS1,47.2 µM (active)
N#CSCSc1nc2ccccc2s1,AC50,[9],50.1 µM (inconclusive)
O=C(O)c1coc(-c2ccc(F)cc2)n1,EC50,[10],> 100 µM (inactive)
CN(/N=C/c1ccc(N(C)C)cc1)C1=NS(=O)(=O)c2ccccc21,IC50,Beta Lactamase,15 µM (inactive)
same,EC50,BJ [11],27.9 µM (active)
same,EC50,BJ [12],47 µM (active)
same,IC50,Beta-lactamase [13],13.4 µM (inactive)
same,EC50,BJ [14],> 150 µM (not active)
same,IC50,Beta-lactamase [15],23 µM (inactive)
same,EC50,[16],84.8 µM (active)
same,EC50,"Troponin, cardiac muscle",4.5 µM (active)
same,EC50,[17],> 99 µM (inactive)
same,EC50,[18],> 99 µM (inactive)
Cc1cc(N=Cc2ccc(O)c(O)c2)c2ccccc2n1,Ki,Aurora kinase A,0.0251 µM (active)
same,Ki,Aurora kinase B,0.00631 µM (active)
c1ccc(C2Cc3cn[nH]c3C2)cc1 (stereo not drawn),Ki,[19],79.4 µM (active)
same,Ki,[20],15.8 µM (active)
COc1ccc(/C=N\NC(=O)/C(=C\Nc2nccc(C)n2)NC(=O)c2ccccc2)cc1,IC50,[21],149 µM (inactive)
